Reference: ChEMBL document CHEMBL1152082, “Topographical requirements for delta opioid ligands: The synthesis and biological properties of a cyclic analogue of deltorphin I” (Bioorg Med Chem Lett, 1992)
Bridge positions count the residues as written; N and C are the ends. Square brackets hold non-standard residues; d marks the D form. Peptide text beside a SMILES is read from it.

Legend:
[1] = target: Delta-type opioid receptor (Rattus norvegicus, UniProt P33533); experiment: Binding affinity against delta receptor with [3H][p-Cl-Phe4]-DPDPE
Mu-type opioid receptor [2] = target: Mu-type opioid receptor (Cavia porcellus, UniProt P97266); experiment: Inhibitory activity against Guinea pig ileum smooth muscle; assay type: functional, tissue-based
Mu-type opioid receptor [3] = target: Mu-type opioid receptor (Rattus norvegicus, UniProt P33535); experiment: Binding affinity against Opioid receptor mu 1 with [3H]CTOP
[4] = target: Delta-type opioid receptor (Mus musculus, UniProt P32300); experiment: Inhibitory activity against Mouse vas deferens smooth muscle; assay type: functional, tissue-based, Muscle tissue
Sequence of Delta-type opioid receptor (Mus musculus, UniProt P32300) (P32300 whole entry): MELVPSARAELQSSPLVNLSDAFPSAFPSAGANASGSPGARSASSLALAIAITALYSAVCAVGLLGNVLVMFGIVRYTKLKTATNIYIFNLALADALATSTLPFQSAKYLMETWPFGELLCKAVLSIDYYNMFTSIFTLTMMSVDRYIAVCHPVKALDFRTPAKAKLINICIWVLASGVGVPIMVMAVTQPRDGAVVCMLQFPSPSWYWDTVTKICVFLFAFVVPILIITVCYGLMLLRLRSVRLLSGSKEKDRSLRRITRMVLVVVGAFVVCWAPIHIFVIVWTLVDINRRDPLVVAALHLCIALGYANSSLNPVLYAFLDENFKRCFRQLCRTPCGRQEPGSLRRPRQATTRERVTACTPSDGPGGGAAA

Sequence of Mu-type opioid receptor (Cavia porcellus, UniProt P97266) (P97266 whole entry): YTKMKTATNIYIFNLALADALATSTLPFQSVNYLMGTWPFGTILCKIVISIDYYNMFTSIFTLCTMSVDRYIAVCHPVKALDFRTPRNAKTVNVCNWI
Sequence of Mu-type opioid receptor (Rattus norvegicus, UniProt P33535) (P33535 whole entry): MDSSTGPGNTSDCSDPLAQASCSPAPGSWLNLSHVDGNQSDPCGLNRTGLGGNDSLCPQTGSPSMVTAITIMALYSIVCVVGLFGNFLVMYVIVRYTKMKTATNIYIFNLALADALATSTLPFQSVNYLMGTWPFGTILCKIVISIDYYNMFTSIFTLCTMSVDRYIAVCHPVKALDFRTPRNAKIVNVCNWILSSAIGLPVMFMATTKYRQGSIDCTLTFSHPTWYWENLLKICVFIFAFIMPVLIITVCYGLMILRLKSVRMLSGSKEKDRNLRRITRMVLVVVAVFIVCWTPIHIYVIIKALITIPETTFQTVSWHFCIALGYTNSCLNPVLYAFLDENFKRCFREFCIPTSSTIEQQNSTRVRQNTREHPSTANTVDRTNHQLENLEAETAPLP
Sequence of Delta-type opioid receptor (Rattus norvegicus, UniProt P33533) (P33533 whole entry): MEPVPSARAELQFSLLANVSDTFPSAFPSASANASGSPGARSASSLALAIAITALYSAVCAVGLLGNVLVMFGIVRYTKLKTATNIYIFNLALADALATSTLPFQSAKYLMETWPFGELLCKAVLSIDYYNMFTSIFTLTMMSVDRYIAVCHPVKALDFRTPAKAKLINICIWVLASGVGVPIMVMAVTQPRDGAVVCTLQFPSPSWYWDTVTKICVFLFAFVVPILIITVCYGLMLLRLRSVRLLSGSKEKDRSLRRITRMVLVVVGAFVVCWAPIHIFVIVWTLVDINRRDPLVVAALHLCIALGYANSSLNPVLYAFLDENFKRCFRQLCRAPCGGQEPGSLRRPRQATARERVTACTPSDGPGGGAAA

Q: Which results are given for `CC(NC(=O)[C@@H](N)Cc1ccc(O)cc1)C(=O)N[C@@H](Cc1ccccc1)C(=O)N[C@@H](CC(=O)O)C(=O)N[C@H](C(=O)N[C@H](C(=O)NCC(N)=O)C(C)C)C(C)C` (single isomer, unassigned) [DELTORPHIN C]?
A: IC50 [1]: 0.6 nM; IC50 (Mu-type opioid receptor [2]): 2.89 nM; IC50 (Mu-type opioid receptor [3]): 2140 nM

Q: With `CC(C)[C@H](NC(=O)[C@@H]1CSSC[C@@H](NC(=O)[C@@H](N)Cc2ccc(O)cc2)C(=O)N[C@@H](Cc2ccccc2)C(=O)N[C@@H](CC(=O)O)C(=O)N1)C(=O)NCC(N)=O` (H-Y[dC]FDCVG-NH2; disulfide 2-5) as the compound, how does the IC50 [1] read?
A: 0.87 nM

Q: What about the IC50 (Mu-type opioid receptor [2]) of the same compound?
A: 2.98 nM

Q: What about the IC50 (Mu-type opioid receptor [3]) of the same compound?
A: 5.15 nM

Q: And the IC50 [4]?
A: 0.23 nM
